The values that follow come from US8034811B2, “Hydroxamic acid esters and pharmaceutical use thereof” (Leo Pharma A/S, priority 2003, dated 2011).

Usually IC50 stands for the point on the concentration scale where inhibition reaches its midpoint. Low readings indicate greater potency in that assay, high ones weaker potency in that assay.

The target of the test is T1, human intracellular domain of KDR (VEGF Receptor-2) (Homo sapiens, UniProt P35968).
T1 construct: A fusion protein containing the intracellular domain (amino acids 793 to 1357) of the KDR and N-terminally tagged to GST; made in house; host or cells: Sf9 insect cells (baculovirus, pDEST20) for GST-KDR-cyt; E. coli BL21 (pGEX-4T-1) for GST-PLCγ
T1 sequence (P35968 794-1356 limits assumed): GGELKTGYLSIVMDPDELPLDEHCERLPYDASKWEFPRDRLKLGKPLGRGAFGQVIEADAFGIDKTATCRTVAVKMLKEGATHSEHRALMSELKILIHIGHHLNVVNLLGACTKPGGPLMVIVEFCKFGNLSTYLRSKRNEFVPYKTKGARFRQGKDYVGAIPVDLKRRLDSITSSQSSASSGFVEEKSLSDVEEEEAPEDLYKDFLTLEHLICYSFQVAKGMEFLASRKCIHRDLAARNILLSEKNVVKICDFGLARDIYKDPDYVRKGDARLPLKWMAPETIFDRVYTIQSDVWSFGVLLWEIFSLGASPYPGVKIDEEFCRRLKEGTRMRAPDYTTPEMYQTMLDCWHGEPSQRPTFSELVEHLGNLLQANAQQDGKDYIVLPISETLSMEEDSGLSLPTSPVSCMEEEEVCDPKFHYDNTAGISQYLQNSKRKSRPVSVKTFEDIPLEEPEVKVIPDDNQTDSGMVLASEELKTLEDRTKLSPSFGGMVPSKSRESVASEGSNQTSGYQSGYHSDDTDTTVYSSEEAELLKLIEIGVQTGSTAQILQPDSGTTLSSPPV
Put plainly: In vitro KDR kinase assay. The format is biochemical. To be noted: IC50 as molar concentration; GST-KDR-cyt, substrate phospholipase Cγ, ATP 100 μM, 30 min room temperature, time-resolved fluorometry. The method, then: The intracellular domain of the KDR receptor was used in the in vitro KDR assay. This domain contains the tyrosine kinase domain of KDR, and when expressed in Sf9 cells, this domain is constitutively active i.e. the kinase domain is phosphorylated on tyrosine residues.
The compounds to be tested were dissolved in DMSO at 10 mM, stored at −20° C. and protected from light. The maximum concentration of DMSO in the in vitro assay was 0.1%. Control samples received the same concentration of solvent as the samples treated with the test compounds.
For the kinase assays, black 96 wells MaxiSorp microtiter plates were coated by an overnight incubation with 100 μl/well of a 2.5 μg/ml solution of phospholipase Cγ in TBS buffer (40 mM Tris-HCl, pH 7.4, 20 mM Mg(C2H3O2)2, 0.02% NaN3) at 4° C. The plates were washed 3 times with TBS buffer containing 0.1% Tween-20, and the residual binding sites were masked by incubation with 1% BSA in TBS buffer containing 0.1% Tween-20 for 1 h. The plates were washed again and the test compounds were added at final concentrations up to 10 μM, together with ATP at the final concentration of 100 μM in 50 μl TBS buffer/well. Then, 50 μl of the human intracellular domain of KDR (VEGF Receptor-2) finally diluted 3000-3500 fold were added and were incubated for 30 min at room temperature. The plates were washed and 100 μl of the Europium labelled PY-20 anti-phosphotyrosine antibody (Wallac, FIN) were incubated in each well at the concentration of approximately 114 ng/ml for 2 h. Then, the plates were washed and 100 μl of enhancer solution (Wallac, FIN) were incubated in each well for 5 min in the dark. The plates were read in a Victor 1420 multilabel counter, using a Europium protocol for time-resolved fluorometry (Wallac, FIN): excitation 340 nm, emission 615 nm, sample pulse cycle 400 μs. Fluorescence was measured for 400 μs between flashes after a delay time of 400 μs. The background measured in the absence of enzyme was subtracted from all samples. The molar concentrations that inhibited 50% of the maximal enzymatic activity (IC50) were calculated from the dose-response curve, by fitting a straight line between the two concentrations immediately above and below the 50% inhibition point (i.e. by solving the equation y=a+bx).
`CO[C@@H]1CCC[C@H](CONC(=O)c2ccccc2NCc2ccncc2)C1` (stereo in doubt) [Compound 131, N-(3-Methoxy-cyclohexylmethoxy)-2-[(pyridin-4-ylmethyl)-amino]-benzamide] showed a half-maximal inhibitory concentration (IC50) of 39.8 nM. Regarding `O=C(NOCC1C[C@@H]2CC[C@H]1C2)c1ccccc1NCc1ccncc1` (stereo in doubt) [Compound 133, N-(Bicyclo[2.2.1]hept-2-ylmethoxy)-2-[(pyridin-4-ylmethyl)-amino]-benzamide], the concentration for half-maximal inhibition (IC50) was 20 nM. As for `O=C(NOCc1ccccc1)c1ccccc1NCc1ccncc1` [Compound 1, N-Benzyloxy-2-[(pyridin-4-ylmethyl)-amino]-benzamide], the midpoint of inhibition, the IC50, lay at 79.4 nM. `O=C(NOCc1ccc([N+](=O)[O-])cc1)c1ccccc1NCc1ccncc1` [Compound 2, N-(4-Nitro-benzyloxy)-2-[(pyridin-4-ylmethyl)-amino]-benzamide] gave an IC50 of 126 nM. Compound `O=C(NOCc1ccccc1[N+](=O)[O-])c1ccccc1NCc1ccncc1` [Compound 3, N-(2-Nitro-benzyloxy)-2-[(pyridin-4-ylmethyl)-amino]-benzamide] showed a half-maximal inhibitory concentration (IC50) of 100 nM. The compound `O=C(NOCc1cccc(C(F)(F)F)c1)c1ccccc1NCc1ccncc1` [Compound 4, 2-[(Pyridin-4-ylmethyl)-amino]-N-(3-trifluoromethyl-benzyloxy)-benzamide] showed a concentration for half-maximal inhibition (IC50) of 200 nM. Turning to `O=C(NOCc1ccccc1C(F)(F)F)c1ccccc1NCc1ccncc1` [Compound 5, 2-[(Pyridin-4-ylmethyl)-amino]-N-(2-trifluoromethyl-benzyloxy)-benzamide], inhibition was half-maximal at 31.6 nM (IC50). The result for `O=C(NOCc1ccc(C(F)(F)F)cc1)c1ccccc1NCc1ccncc1` [Compound 6, N2-[(Pyridin-4-ylmethyl)-amino]-N-(4-trifluoromethyl-benzyloxy)-benzamide] reads 63.1 nM; that for `COc1ccc(CONC(=O)c2ccccc2NCc2ccncc2)cc1` [Compound 7, N-(4-Methoxy-benzyloxy)-2-[(pyridin-4-ylmethyl)-amino]-benzamide], 39.8 nM; that for `COc1cccc(CONC(=O)c2ccccc2NCc2ccncc2)c1` [Compound 8, N-(3-Methoxy-benzyloxy)-2-[(pyridin-4-ylmethyl)-amino]-benzamide], 31.6 nM.

In turn, `COc1cc(CONC(=O)c2ccccc2NCc2ccncc2)cc(OC)c1OC` [Compound 9, 2-[(pyridin-4-ylmethyl)-amino]-N-(3,4,5-trimethoxy-benzyloxy)-benzamide] gave a 50% inhibitory concentration (IC50) of 100 nM.

Take `O=C(NOCc1ccc(Cl)cc1)c1ccccc1NCc1ccncc1` [Compound 10, N-(4-Chloro-benzyloxy)-2-[(pyridin-4-ylmethyl)-amino]-benzamide]: inhibition was half-maximal at 50.1 nM (IC50). The result for `O=C(NOCc1cccc(Cl)c1)c1ccccc1NCc1ccncc1` [Compound 11, N-(3-Chloro-benzyloxy)-2-[(pyridin-4-ylmethyl)-amino]-benzamide] reads 126 nM; that for `O=C(NOCc1ccccc1Cl)c1ccccc1NCc1ccncc1` [Compound 12, N-(2-Chloro-benzyloxy)-2-[(pyridin-4-ylmethyl)-amino]-benzamide], 15.8 nM; that for `O=C(NOCc1ccccc1Br)c1ccccc1NCc1ccncc1` [Compound 13, N-(2-Bromo-benzyloxy)-2-[(pyridin-4-ylmethyl)-amino]-benzamide], 15.8 nM.

`O=C(NOCc1ccc(Cl)cc1Cl)c1ccccc1NCc1ccncc1` [Compound 14, N-(2,4-Dichloro-benzyloxy)-2-[(pyridin-4-ylmethyl)-amino]-benzamide] showed a half-maximal inhibitory concentration (IC50) of 6.31 nM.

The compound `O=C(NOCc1ccc(Cl)c(Cl)c1)c1ccccc1NCc1ccncc1` [Compound 15, N-(3,4-Dichloro-benzyloxy)-2-[(pyridine-4-ylmethyl)-amino]-benzamide] showed an IC50 of 50.1 nM. `O=C(NOCc1c(Cl)cccc1Cl)c1ccccc1NCc1ccncc1` [Compound 16, N-(2,6-Dichloro-benzyloxy)-2-[(pyridin-4-ylmethyl)-amino]-benzamide] had an IC50 of 25.1 nM. `O=C(NOCc1cc(Cl)cc(Cl)c1)c1ccccc1NCc1ccncc1` [Compound 17, N-(3,5-Dichloro-benzyloxy)-2-[(pyridin-4-ylmethyl)-amino]-benzamide] showed an IC50 of 63.1 nM. `O=C(NOCc1cccc(Cl)c1Cl)c1ccccc1NCc1ccncc1` [Compound 18, N-(2,3-Dichloro-benzyloxy)-2-[(pyridin-4-ylmethyl)-amino]-benzamide] gave a concentration for half-maximal inhibition (IC50) of 20 nM. The result for `O=C(NOCc1cc(Cl)ccc1Cl)c1ccccc1NCc1ccncc1` [Compound 19, N-(2,5-Dichloro-benzyloxy)-2-[(pyridin-4-ylmethyl)-amino]-benzamide] reads 63.1 nM; that for `O=C(NOCc1ccccc1F)c1ccccc1NCc1ccncc1` [Compound 20, N-(2-Fluoro-benzyloxy)-2-[(pyridin-4-ylmethyl)-amino]-benzamide], 31.6 nM; that for `O=C(NOCc1cccc(F)c1)c1ccccc1NCc1ccncc1` [Compound 21, N-(3-Fluoro-benzyloxy)-2-[(pyridin-4-ylmethyl)-amino]-benzamide], 25.1 nM. Consider `O=C(NOCc1ccc(F)cc1)c1ccccc1NCc1ccncc1` [Compound 22, N-(4-Fluoro-benzyloxy)-2-[(pyridin-4-ylmethyl)-amino]-benzamide], for which the IC50 is 25.1 nM. As for `O=C(NOCc1c(F)cccc1Cl)c1ccccc1NCc1ccncc1` [Compound 23, N-(2-Chloro-6-fluoro-benzyloxy)-2-[(pyridin-4-ylmethyl)-amino]-benzamide], the IC50 is 25.1 nM.

With `O=C(NOCc1ccc(F)cc1Cl)c1ccccc1NCc1ccncc1` [Compound 24, N-(2-Chloro-4-fluoro-benzyloxy)-2-[(pyridin-4-ylmethyl)-amino]-benzamide], the IC50 is 20 nM. With `O=C(NOCc1cccc(Cl)c1F)c1ccccc1NCc1ccncc1` [Compound 25, N-(3-Chloro-2-fluoro-benzyloxy)-2-[(pyridin-4-ylmethyl)-amino]-benzamide] the figure was 50.1 nM. In the case of `COC(=O)c1ccc(CONC(=O)c2ccccc2NCc2ccncc2)cc1` [Compound 26, 4-{2-[(pyridin-4-ylmethyl)-amino]-benzoylaminooxymethyl}-benzoic acid methyl ester], inhibition was half-maximal at 79.4 nM (IC50). The result for `N#Cc1ccc(CONC(=O)c2ccccc2NCc2ccncc2)cc1` [Compound 27, N-(4-cyano-benzyloxy)-2-[(pyridin-4-ylmethyl)-amino]-benzamide] reads 12.6 nM. With `O=C(NOCc1ccc2ccccc2n1)c1ccccc1NCc1ccncc1` [Compound 28, 2-[(Pyridin-4-ylmethyl)-amino]-N-(quinolin-2-ylmethoxy)-benzamide] the figure was 100 nM; with `O=C(NOc1ccccc1)c1ccccc1NCc1ccncc1` [Compound 29, N-Phenoxy-2-[(pyridin-4-ylmethyl)-amino]-benzamide], 126 nM; with `O=C(NOCCOc1ccccc1)c1ccccc1NCc1ccncc1` [Compound 30, N-(2-Phenoxy-ethoxy)-2-[(pyridin-4-ylmethyl)-amino]-benzamide], 1000 nM. In turn, `O=C(NOCCCc1ccccc1)c1ccccc1NCc1ccncc1` [Compound 31, N-(3-Phenyl-propoxy)-2-[(pyridin-4-ylmethyl)-amino]-benzamide] showed an IC50 of 126 nM. `Cc1nc(CONC(=O)c2ccccc2NCc2ccncc2)cs1` [Compound 32, N-(2-methyl-thiazol-4 ylmethoxy)-2-[(pyridin-4-ylmethyl)-amino]-benzamide]: the IC50 was 20 nM. As for `O=C(NOCc1ccccc1)c1cccnc1NCc1ccncc1` [Compound 33, N-Benzyloxy-2-2-[(pyridin-4-ylmethyl)-amino]-nicotinamide], the half-maximal inhibitory concentration (IC50) was 100 nM.

`COc1ccc(CONC(=O)c2cccnc2NCc2ccc(F)cc2)cc1` [Compound 34, 2-(4-Fluoro-benzylamino)-N-(4-methoxy-benzyloxy)-nicotinamide] showed an IC50 of 794 nM.

On to `COc1ccc(CNc2ncccc2C(=O)NOCc2ccc(OC)cc2)cc1` [Compound 35, 2-(4-Methoxy-benzylamino)-N-(4-methoxy-benzyloxy)-nicotinamide], for which it took 1000 nM to reach half-maximal inhibition (IC50). For the compound `Cc1cc(F)cc(C)c1CONC(=O)c1ccccc1NCc1ccncc1` [Compound 38, N-(4-Fluoro-2,6-dimethyl-benzyloxy)-2-[(pyridin-4-ylmethyl)-amino]-benzamide], the IC50 was 10 nM.
